US20240043435A1, “TYK-2 INHIBITOR” (BEIGENE, LTD., priority 2020, published 2024)

Key:
pSTAT5/GM-CSF = pSTAT5/GM-CSF cellular assay (JAK2 selectivity); assay type: cell-based; conditions: for Selectivity fold (TYK2/JAK2): pSTAT5/GM-CSF vs pSTAT4/IL-12
[1] = system: JAK2, TYK2/p-STAT4 (Tyr693) activated by IL-12 in NK-92 cell line; assay: IL-12-JAK2, TYK2/p-STAT4 (Tyr693) inhibition IC50 cellular assay; assay type: cell-based; conditions: for Selectivity fold (TYK2/JAK2): Cellular assay, pSTAT5/GM-CSF IC50 vs pSTAT4/IL-12 IC50; for IC50: NK92, Cellular assay, read-out: pSTAT4/IL-12 IC50
Method in brief: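 p-STAT4 (Tyr693) in lysates was measured by AlphaLISA SureFire Ultra after a 30 min IL-12 challenge (40 ng/ml final) at 37° C. Overnight-starved, IL-2-free NK-92 cells had been pretreated 1 h with compound at 10000 to 0.61 nM (4-fold, 8 points). IC50 values came from four-parameter logistic fitting.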

[2] = molecular target: T1, TYK2-JH2 (aa 575-869, in-house) protein (Homo sapiens, UniProt P29597); assay: TYK2-JH2 biochemical assay (HTRF probe displacement); assay type: binding; conditions: Biochemical assay; read-out: TYK2-JH2 IC50
T1 construct: TYK2-JH2 (aa 575-869, in-house) protein; made in house
T1 sequence (P29597 575-869): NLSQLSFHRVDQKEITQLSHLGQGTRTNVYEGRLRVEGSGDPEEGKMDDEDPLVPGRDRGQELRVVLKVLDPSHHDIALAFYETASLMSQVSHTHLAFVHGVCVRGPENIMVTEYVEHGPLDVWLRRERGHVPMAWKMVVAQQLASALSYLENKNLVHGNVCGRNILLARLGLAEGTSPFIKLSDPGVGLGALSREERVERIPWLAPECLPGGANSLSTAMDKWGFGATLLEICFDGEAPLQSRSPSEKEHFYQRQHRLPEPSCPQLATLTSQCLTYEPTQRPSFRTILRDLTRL
Method in brief: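 HTRF probe-displacement format: compound dilutions (10 points, 5-fold, from 500 uM in DMSO at 500×) were combined with 0.2 nM TYK2-JH2 protein for 0.5 h at room temperature in HEPES pH 7.5 buffer with MgCl2, BSA, DTT and Brij-35. Percent inhibition came from the 615/665 nm fluorescence ratio, fitted to a four-parameter logistic for IC50.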

Structure (SMILES)	IC50 (pSTAT5/GM-CSF)	Selectivity fold (TYK2/JAK2) [1]	IC50 [1]	IC50 [2]	Selectivity fold (TYK2/JAK2) (pSTAT5/GM-CSF)
COCc1ccc(-c2cnc(NC(C)=O)cc2Nc2cc(OC(C)C)cc(S(C)(=O)=O)n2)nc1 [Example E4, N-(4′-((4-isopropoxy-6-(methylsulfonyl)pyridin-2-yl)amino)-5-(methoxymethyl)-[2,3′-bipyridin]-6′-yl)acetamide]	> 10000 nM	>18656 fold	0.536 nM	0.022 nM	–
COCCOc1cc(Nc2cc(NC(C)=O)ncc2-c2ccc(COC)cn2)nc(S(C)(=O)=O)c1 [Example E5, N-(4′-((4-(2-methoxyethoxy)-6-(methylsulfonyl)pyridin-2-yl)amino)-5-(methoxymethyl)-[2,3′-bipyridin]-6′-yl)acetamide]	> 10000 nM	>19960 fold	0.501 nM	0.022 nM	–
COCc1ccc(-c2cnc(NC(C)=O)cc2Nc2cc(OCCO)cc(S(C)(=O)=O)n2)nc1 [Example E6, N-(4′-((4-(2-hydroxyethoxy)-6-(methylsulfonyl)pyridin-2-yl)amino)-5-(methoxymethyl)-[2,3′-bipyridin]-6′-yl)acetamide]	> 10000 nM	>3676 fold	2.72 nM	0.029 nM	–
COCc1ccc(-c2cnc(NC(C)=O)cc2Nc2cc(OC)cc(S(C)(=O)=O)n2)nc1 [Example E7, N-(4′-((4-methoxy-6-(methylsulfonyl)pyridin-2-yl)amino)-5-(methoxymethyl)-[2,3′-bipyridin]-6′-yl)acetamide]	> 10000 nM	>22371 fold	0.447 nM	0.02 nM	–
COCc1ccc(-c2cnc(NC(C)=O)cc2Nc2cc(O[C@H]3C[C@H](O)C3)cc(S(C)(=O)=O)n2)nc1 [Example E8, N-(4′-((4-((1r,3r)-3-hydroxycyclobutoxy)-6-(methylsulfonyl)pyridin-2-yl)amino)-5-(methoxymethyl)-[2,3′-bipyridin]-6′-yl)acetamide]	> 10000 nM	>3496 fold	2.86 nM	0.034 nM	–
COCc1ccc(-c2cnc(NC(C)=O)cc2Nc2cc(COC)cc(S(C)(=O)=O)n2)nc1 [Example E9, N-(5-(methoxymethyl)-4′-((4-(methoxymethyl)-6-(methylsulfonyl)pyridin-2-yl)amino)-[2,3′-bipyridin]-6′-yl)acetamide]	> 10000 nM	>19960 fold	0.504 nM	0.022 nM	–
CC(=O)Nc1cc(Nc2cc(C)cc(S(C)(=O)=O)n2)c(-c2ccc(C(F)(F)F)cn2)cn1 [Example F1, N-(4′-((4-methyl-6-(methylsulfonyl)pyridin-2-yl)amino)-5-(trifluoromethyl)-[2,3′-bipyridin]-6′-yl)acetamide]	> 10000 nM	>8130 fold	1.23 nM	0.046 nM	–
CC(=O)Nc1cc(Nc2cccc(S(C)(=O)=O)c2)c(-c2ccc(C(F)(F)F)cn2)cn1 [Example F2, N-(4′-((3-(methylsulfonyl)phenyl)amino)-5-(trifluoromethyl)-[2,3′-bipyridin]-6′-yl)acetamide]	> 10000 nM	>451 fold	22.1 nM	0.051 nM	–
CC(=O)Nc1cc(Nc2cc(OC(C)C)cc(S(C)(=O)=O)n2)c(-c2ccc(C(F)(F)F)cn2)cn1 [Example F9, N-(4′-((4-isopropoxy-6-(methylsulfonyl)pyridin-2-yl)amino)-5-(trifluoromethyl)-[2,3′-bipyridin]-6′-yl)acetamide]	> 10000 nM	> 1834 fold	5.45 nM	0.06 nM	–
COCCOc1cc(Nc2cc(NC(C)=O)ncc2-c2ccc(C(F)(F)F)cn2)nc(S(C)(=O)=O)c1 [Example F11, N-(4′-((4-(2-methoxyethoxy)-6-(methylsulfonyl)pyridin-2-yl)amino)-5-(trifluoromethyl)-[2,3′-bipyridin]-6′-yl)acetamidecarboxamide]	> 10000 nM	>14184 fold	0.705 nM	0.037 nM	–
CC(=O)Nc1cc(Nc2cc(OCCO)cc(S(C)(=O)=O)n2)c(-c2ccc(C(F)(F)F)cn2)cn1 [Example F12, N-(4′-((4-(2-hydroxyethoxy)-6-(methylsulfonyl)pyridin-2-yl)amino)-5-(trifluoromethyl)-[2,3′-bipyridin]-6′-yl)acetamide]	> 10000 nM	>7407 fold	1.35 nM	0.034 nM	–
CC(=O)Nc1cc(Nc2cc(C)cc(S(C)(=O)=O)n2)c(-c2ccc(F)cn2)cn1 [Example F17, N-(5-fluoro-4′-((4-methyl-6-(methylsulfonyl)pyridin-2-yl)amino)-[2,3′-bipyridin]-6′-yl)acetamide]	> 10000 nM	>8000 fold	1.25 nM	0.054 nM	–
CCOc1cc(Nc2cc(NC(C)=O)ncc2-c2ccc(F)cn2)nc(S(C)(=O)=O)c1 [Example F19, N-(4′-((4-ethoxy-6-(methylsulfonyl)pyridin-2-yl)amino)-5-fluoro-[2,3′-bipyridin]-6′-yl)acetamide]	> 10000 nM	>3267 fold	3.06 nM	0.036 nM	–
COc1cc(Nc2cc(NC(C)=O)ncc2-c2ccc(C(F)(F)F)cn2)nc(S(C)(=O)=O)c1 [Example F20, N-(4′-((4-methoxy-6-(methylsulfonyl)pyridin-2-yl)amino)-5-(trifluoromethyl)-[2,3′-bipyridin]-6′-yl)acetamide]	> 10000 nM	>6896 fold	1.45 nM	0.031 nM	–
CC(=O)Nc1cc(Nc2cc(OC[C@H](C)O)cc(S(C)(=O)=O)n2)c(-c2ccc(C(F)(F)F)cn2)cn1 [Example F21, (S)-N-(4′-((4-(2-hydroxypropoxy)-6-(methylsulfonyl)pyridin-2-yl)amino)-5-(trifluoromethyl)-[2,3′-bipyridin]-6′-yl)acetamide]	> 10000 nM	>2814 fold	3.54 nM	0.026 nM	–
COc1cc(S(C)(=O)=O)nc(Nc2cc(NC(C)=O)ncc2-c2ccc(F)cn2)c1OC [Example F23, N-(4′-((3,4-dimethoxy-6-(methylsulfonyl)pyridin-2-yl)amino)-5-fluoro-[2,3′-bipyridin]-6′-yl)acetamide]	> 10000 nM	>9345 fold	1.07 nM	0.02 nM	–
[2H]C([2H])([2H])Oc1cc(Nc2cc(NC(C)=O)ncc2-c2ccc(F)cn2)nc(S(C)(=O)=O)c1 [Example F24, N-(5-fluoro-4′-((4-(methoxy-d3)-6-(methylsulfonyl)pyridine-2-yl)amino)-[2,3′-bipyridin]-6′-yl)acetamide]	> 10000 nM	>12195 fold	0.82 nM	0.033 nM	–
CC(=O)Nc1cc(Nc2cc(C3CC3)cc(S(C)(=O)=O)n2)c(-c2ccc(F)cn2)cn1 [Example F25, N-(4′-((4-cyclopropyl-6-(methylsulfonyl)pyridin-2-yl)amino)-5-fluoro-[2,3′-bipyridin]-6′-yl)acetamide]	> 10000 nM	>22421 fold	0.446 nM	0.029 nM	–
CC(=O)Nc1cc(Nc2cccc(S(C)(=O)=O)n2)c(-c2ccc(N3CCOCC3=O)cn2)cn1 [Example G2, N-(4′-((6-(methylsulfonyl)pyridin-2-yl)amino)-5-(3-oxomorpholino)-[2,3′-bipyridin]-6′-yl)acetamide]	> 10000 nM	–	14.2 nM	0.067 nM	>704 fold
CC(=O)Nc1cc(Nc2cc(OCCO)cc(S(C)(=O)=O)n2)c(-c2ccc(N3CCOCC3=O)cn2)cn1 [Example G3, N-(4′-((4-(2-hydroxyethoxy)-6-(methylsulfonyl)pyridin-2-yl)amino)-5-(3-oxomorpholino)-[2,3′-bipyridin]-6′-yl)acetamide]	> 10000 nM	–	224 nM	0.05 nM	>44 fold
COCCOc1cc(Nc2cc(NC(C)=O)ncc2-c2ccc(N3CCOCC3=O)cn2)nc(S(C)(=O)=O)c1 [Example G4, N-(4′-((4-(2-methoxyethoxy)-6-(methylsulfonyl)pyridin-2-yl)amino)-5-(3-oxomorpholino)-[2,3′-bipyridin]-6′-yl)acetamide]	> 10000 nM	–	16 nM	0.048 nM	>625 fold
CC(=O)Nc1cc(Nc2cc(OC(C)C)cc(S(C)(=O)=O)n2)c(-c2ccc(C(C)(C)O)cn2)cn1 [Example H2, N-(5-(2-hydroxypropan-2-yl)-4′-((4-isopropoxy-6-(methylsulfonyl)pyridin-2-yl)amino)-[2,3′-bipyridin]-6′-yl)acetamide]	> 10000 nM	>10649 fold	0.939 nM	0.036 nM	–
CC(=O)Nc1cc(Nc2cc(C(F)(F)F)cc(S(C)(=O)=O)c2)c(-c2ccc(C(C)(C)O)cn2)cn1 [Example H3, N-(5-(2-hydroxypropan-2-yl)-4′-((3-(methylsulfonyl)-5-(trifluoromethyl)phenyl)amino)-[2,3′-bipyridin]-6′-yl)acetamide]	7180 nM	>843 fold	8.52 nM	0.048 nM	–
